Experimental data from patent US7795278B2 (sanofi-aventis Deutschland GmbH, priority 2004, dated 2010).
pIC50: −log10 of the molar value.

Biological target: recombinantly expressed human PARP-1 enzyme (Homo sapiens, UniProt P09874)
Test: PARP enzyme assay (half-maximum inhibitor concentration)
Assay type: biochemical
Details: DNA-activated PARP-1, 200 μM NAD, tritium-labeled NAD incorporation, room temperature, 1 hour, pH 8.0
Procedure: Pharmacological Investigations PARP Enzyme Assay
The half-maximum inhibitor concentration is determined by incubating the substances to be tested with the DNA-activated, recombinantly expressed and purified PARP-1 enzyme. Specifically, various concentrations of the test substance are incubated in 50 μl of reaction solution, which contains 50 mM Tris, 5 mM MgCl2, 1 mM DTT, 200 μM NAD, 0.1 mCi/ml tritium-labeled NAD, 0.1 mg/ml DNA, 0.1 mg/ml histones, 2 μg/ml recombinantly expressed human PARP-1 enzyme, pH=8.0, at room temperature for 1 hour. The reaction is stopped by adding 150 μl of 20% trichloroacetic acid, and the radiolabeled protein constituents are precipitated. After incubation on ice for 10 minutes, the labeled, insoluble constituents are separated off through a glass fiber filter and, after washing with 20% trichloroacetic acid three times, the radioactivity incorporated by the PARP-1 enzyme is measured by radioluminescence.
IC-50 values were determined in this way for the following compounds: […]

Sequence of recombinantly expressed human PARP-1 enzyme (P09874 whole entry): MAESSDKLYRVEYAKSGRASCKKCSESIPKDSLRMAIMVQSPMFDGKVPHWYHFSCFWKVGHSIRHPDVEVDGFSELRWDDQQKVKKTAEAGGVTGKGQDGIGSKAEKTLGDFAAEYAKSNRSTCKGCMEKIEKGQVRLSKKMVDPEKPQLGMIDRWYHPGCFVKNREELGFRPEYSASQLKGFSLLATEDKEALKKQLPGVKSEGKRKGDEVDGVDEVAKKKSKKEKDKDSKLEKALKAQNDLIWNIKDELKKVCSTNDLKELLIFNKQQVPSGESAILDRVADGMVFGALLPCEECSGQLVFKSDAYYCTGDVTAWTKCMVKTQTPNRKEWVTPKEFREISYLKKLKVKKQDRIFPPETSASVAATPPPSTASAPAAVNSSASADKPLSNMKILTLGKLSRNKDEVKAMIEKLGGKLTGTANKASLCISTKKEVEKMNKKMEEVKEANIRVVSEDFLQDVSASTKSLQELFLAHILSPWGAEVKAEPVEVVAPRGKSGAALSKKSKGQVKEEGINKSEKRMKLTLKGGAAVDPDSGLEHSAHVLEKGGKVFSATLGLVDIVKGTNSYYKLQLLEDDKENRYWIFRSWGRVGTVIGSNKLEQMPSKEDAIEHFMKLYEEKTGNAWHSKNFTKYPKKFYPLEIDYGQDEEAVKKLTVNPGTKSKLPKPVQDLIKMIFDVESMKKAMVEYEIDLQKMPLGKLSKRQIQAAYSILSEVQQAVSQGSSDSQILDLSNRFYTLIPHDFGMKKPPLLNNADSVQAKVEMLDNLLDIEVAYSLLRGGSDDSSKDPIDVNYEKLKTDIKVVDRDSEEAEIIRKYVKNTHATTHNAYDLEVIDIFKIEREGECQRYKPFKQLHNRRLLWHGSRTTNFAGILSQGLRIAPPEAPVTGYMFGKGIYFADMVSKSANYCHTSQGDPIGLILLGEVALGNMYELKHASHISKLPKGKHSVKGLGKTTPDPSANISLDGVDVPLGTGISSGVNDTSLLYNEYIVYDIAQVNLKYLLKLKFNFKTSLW

| Molecule | pIC50 |
| --- | --- |
| CN(Cc1ccc(-c2c[nH]c(=O)c3c2CCCC3)o1)Cc1nc2c(s1)CCCC2 [Example 66, 4-(5-{[methyl-(4,5,6,7-tetrahydro-benzothiazol-2-ylmethyl)amino]-methyl}furan-2-yl)-5,6,7,8-tetrahydro-2H-isoquinolin-1-one] | 5.93 |
| O=C(c1cncc(-c2c[nH]c(=O)c3c2CCCC3)c1)N1CCC(c2ccncc2)C1 (stereo not drawn) [Example 36, 4-[5-(3-pyridin-4-ylpyrrolidine-1-carbonyl)pyridin-3-yl]-5,6,7,8-tetrahydro-2H-isoquinolin-1-one] | 6.38 |
| O=C(NCc1ccncc1)c1cncc(-c2c[nH]c(=O)c3c2CCCC3)c1 [Example 48, 5-(1-oxo-1,2,5,6,7,8-hexahydroisoquinolin-4-yl)-N-pyridin-4-ylmethylnicotinamide] | 5.51 |
| CNC(=O)c1cccc(Nc2c[nH]c(=O)c3c2CCCC3)c1 [Example 2, N-methyl-3-(1-oxo-1,2,5,6,7,8-hexahydroisoquinolin-4-ylamino)-benzamide] | 6.57 |
| CC(=O)Nc1cccc(Nc2c[nH]c(=O)c3c2CCCC3)c1 [Example 5, N-[3-(1-oxo-1,2,5,6,7,8-hexahydroisoquinolin-4-ylamino)-phenyl]acetamide] | 6.41 |
| Cc1[nH]c(=O)c2c(c1Nc1cccc(OC(F)(F)F)c1)CCCC2 [Example 14, 3-methyl-4-(3-trifluoromethoxy-phenylamino)-5,6,7,8-tetrahydro-2H-isoquinolin-1-one] | 5.92 |
| O=c1[nH]cc(Nc2ccc(Cl)nc2)c2c1CCCC2 [Example 12, 4-(6-chloropyridin-3-ylamino)-5,6,7,8-tetrahydro-2H-isoquinolin-1-one] | 6.17 |
| COc1ccccc1CNC(=O)c1cncc(-c2c[nH]c(=O)c3c2CCCC3)c1 [Example 46, N-(2-methoxybenzyl)-5-(1-oxo-1,2,5,6,7,8-hexahydroisoquinolin-4-yl)nicotinamide] | 5.50 |
| COc1cccc(CNC(=O)c2cncc(-c3c[nH]c(=O)c4c3CCCC4)c2)c1OC [Example 47, N-(2,3-dimethoxybenzyl)-5-(1-oxo-1,2,5,6,7,8-hexahydroisoquinolin-4-yl)nicotinamide] | 5.48 |
| O=C(NCc1ccc(-c2c[nH]c(=O)c3c2CCCC3)o1)c1cccnc1 [Example 84, N-[5-(1-oxo-1,2,5,6,7,8-hexahydroisoquinolin-4-yl)furan-2-ylmethyl]nicotinamide] | 6.10 |
| CN1CCN(CNCc2ccc(-c3c[nH]c(=O)c4c3CCCC4)o2)CC1 [Example 73, 4-(5-{[(4-methylpiperazin-1-ylmethyl)amino]methyl}furan-2-yl)-5,6,7,8-tetrahydro-2H-isoquinolin-1-one] | 6.18 |
| Cn1c(CNCc2ccc(-c3c[nH]c(=O)c4c3CCCC4)o2)nc2ccccc21 [Example 55, 4-(5-{[(1-methyl-1H-benzoimidazol-2-ylmethyl)amino]methyl}furan-2-yl)-5,6,7,8-tetrahydro-2H-isoquinolin-1-one] | 5.34 |
| Cc1[nH]c(=O)c2c(c1-c1cccs1)CCCC2 [Example 18, 3-methyl-4-thiophen-2-yl-5,6,7,8-tetrahydro-2H-isoquinolin-1-one] | 6.42 |
| Cc1[nH]c(=O)c2c(c1-c1ccc(CNCc3ccccc3)o1)CCCC2 [Example 51, 4-[5-(benzylaminomethyl)furan-2-yl]-3-methyl-5,6,7,8-tetrahydro-2H-isoquinolin-1-one] | 6.23 |
| O=c1[nH]cc(-c2ccc(CN3CCSC3)o2)c2c1CCCC2 [Example 76, 4-(5-thiazolidin-3-ylmethylfuran-2-yl)-5,6,7,8-tetrahydro-2H-isoquinolin-1-one] | 6.36 |
| CC(=O)Nc1ccc(CNC(=O)c2cncc(-c3c[nH]c(=O)c4c3CCCC4)c2)cc1 [Example 37, N-(4-acetylaminobenzyl)-5-(1-oxo-1,2,5,6,7,8-hexahydroisoquinolin-4-yl)nicotinamide] | 5.39 |
| 4-(6-morpholin-4-ylpyridin-3-yl-amino)-5,6,7,8-tetrahydro-2H-isoquinolin-1-one [Example 4] | 5.20 |
| O=c1[nH]cc(-c2ccc(CNS(=O)(=O)c3ccc(Oc4ccccn4)cc3)o2)c2c1CCCC2 [Example 85, N-[5-(1-oxo-1,2,5,6,7,8-hexahydroisoquinolin-4-yl)furan-2-ylmethyl]-4-(pyridin-2-yloxy)benzenesulfonamide] | 5.79 |
| O=C(NCCc1cccnc1)c1cccc(Nc2c[nH]c(=O)c3c2CCCC3)c1 [Example 23, 3-(1-Oxo-1,2,5,6,7,8-hexahydroisoquinolin-4-ylamino)-N-(2-pyridin-3-ylethyl)benzamide] | 5.70 |
| O=c1[nH]cc(-c2ccc(CNC3Cc4ccccc4C3)o2)c2c1CCCC2 [Example 70, 4-[5-(indan-2-ylaminomethyl)-furan-2-yl]-5,6,7,8-tetrahydro-2H-isoquinolin-1-one] | 6.51 |
| O=C(NCc1ccc(-c2c[nH]c(=O)c3c2CCCC3)o1)c1ccco1 [Example 82, N-[5-(1-oxo-1,2,5,6,7,8-hexahydroisoquinolin-4-yl)furan-2-ylmethyl]furan-2-carboxamide] | 6.34 |

Next, values leading:

| pIC50 | Molecule |
| --- | --- |
| 6.52 | Cc1[nH]c(=O)c2c(c1Nc1cccc(S(C)(=O)=O)c1)CCCC2 [Example 7, 4-(3-methanesulfonylphenyl-amino)-3-methyl-5,6,7,8-tetrahydro-2H-isoquinolin-1-one] |
| 6.00 | O=c1[nH]cc(-c2ccc(CNCc3cccnc3)o2)c2c1CCCC2 [Example 59, 4-(5-{[(pyridin-3-ylmethyl)amino]-methyl}furan-2-yl)-5,6,7,8-tetrahydro-2H-isoquinolin-1-one] |
| 5.56 | Cn1ccnc1CN(Cc1ccccc1)Cc1ccc(-c2c[nH]c(=O)c3c2CCCC3)o1 [Example 69, 4-(5-{[benzyl(1-methyl-1H-imidazol-2-ylmethyl)amino]-methyl}furan-2-yl)-5,6,7,8-tetrahydro-2H-isoquinolin-1-one] |
| 6.41 | CCOc1cccc(Nc2c[nH]c(=O)c3c2CCCC3)c1 [Example 11, 4-(3-ethoxyphenylamino)-5,6,7,8-tetrahydro-2H-isoquinolin-1-one] |
| 5.16 | Cc1nn(C)c(C)c1CNC(=O)c1cncc(-c2c[nH]c(=O)c3c2CCCC3)c1 [Example 35, 5-(1-oxo-1,2,5,6,7,8-hexahydroisoquinolin-4-yl)-N-(1,3,5-trimethyl-1H-pyrazol-4-ylmethyl)-nicotinamide] |
| 5.23 | Cc1cnc(CNC(=O)c2cncc(-c3c[nH]c(=O)c4c3CCCC4)c2)cn1 [Example 39, N-(5-methylpyrazin-2-ylmethyl)-5-(1-oxo-1,2,5,6,7,8-hexahydroisoquinolin-4-yl)nicotinamide] |
| 6.85 | CC(=O)Nc1cccc(Nc2c(C)[nH]c(=O)c3c2CCCC3)c1 [Example 17, N-[3-(3-methyl-1-oxo-1,2,5,6,7,8-hexahydroisoquinolin-4-ylamino)-phenyl]acetamide] |
| 6.34 | CN(C)CCNCc1ccc(-c2c[nH]c(=O)c3c2CCCC3)o1 [Example 65, 4-{5-[(2-dimethylaminoethyl-amino)methyl]furan-2-yl}-5,6,7,8-tetrahydro-2H-isoquinolin-1-one] |
| 5.83 | O=C(CNC(=O)c1cncc(-c2c[nH]c(=O)c3c2CCCC3)c1)c1ccccc1 [Example 26, 5-(1-oxo-1,2,5,6,7,8-hexahydroisoquinolin-4-yl)-N-(2-oxo-2-phenylethyl)nicotinamide] |
| 6.09 | O=C(NCCc1ccncc1)c1cncc(-c2c[nH]c(=O)c3c2CCCC3)c1 [Example 43, 5-(1-oxo-1,2,5,6,7,8-hexahydroisoquinolin-4-yl)-N-(2-pyridin-4-ylethyl)nicotinamide] |
| 5.91 | 4-[5-({[4-(4-fluorophenyl)-piperazin-1-yl]-5,6,7,8-tetrahydro-2H-isoquinolin-1-one [Example 71] |
| 5.08 | NS(=O)(=O)c1ccc(CCNC(=O)c2cncc(-c3c[nH]c(=O)c4c3CCCC4)c2)cc1 [Example 44, 5-(1-oxo-1,2,5,6,7,8-hexahydroisoquinolin-4-yl)-N-[2-(4-sulf-amoylphenyl)ethyl]nicotinamide] |
| 5.11 | O=C(c1cncc(-c2c[nH]c(=O)c3c2CCCC3)c1)N1CCCC1 [Example 25, 4-[5-(pyrrolidine-1-carbonyl)-pyridin-3-yl]-5,6,7,8-tetrahydro-2H-isoquinolin-1-one] |
| 6.48 | O=C(c1cccc(Nc2c[nH]c(=O)c3c2CCCC3)c1)N1CCN(CC2CC2)CC1 [Example 22, 4-[3-(4-Cyclopropylmethylpiperazine-1-carbonyl)phenylamino]-5,6,7,8-tetrahydro-2H-isoquinolin-1-one] |
| 5.77 | COc1cccc(CNC(=O)c2cncc(-c3c[nH]c(=O)c4c3CCCC4)c2)c1 [Example 45, N-(3-methoxybenzyl)-5-(1-oxo-1,2,5,6,7,8-hexahydroisoquinolin-4-yl)nicotinamide] |
